# From US8445481B2, “Scaffold-diversified pyrrolidinone derivatives and their use” (The University of Chicago, priority 2007, dated 2013)
# Columns and labels:
# tumor cells = assay: Sensitisation of tumor cells to 2-deoxyglucose; assay type: cell-based
# Description: (§1) Since respiration and glycolysis are tightly coupled in eukaryotic cells, a combination of suppressors of respiration with inhibitors of glycolysis were tested for cytotoxic phenotype.
# hACC2 = target: T1, hACC2 (Homo sapiens, UniProt O00763); conditions: reference ACC inhibitor; cited from earlier work
# T1 construct: expressed in transfected cells; host or cells: Saccharomyces cerevisiae
# cells = assay: Cell cycle arrest; assay type: cell-based
# A549 cells [1] = assay: Cancer cell proliferation, A549; assay type: cell-based
# Description: as §1
# CHO-K1 cells = assay: Cell proliferation, CHO-K1; assay type: cell-based
# Description: as §1
# glycolysis = assay: Lactate production in cell culture medium; assay type: cell-based
# Description: (§2) A high-throughput assay was developed for identification of new inhibitors of glycolysis. The effect of the pyrrolidinone library on intracellular ATP level of A549 cells was tested in either the presence or absence of antimycin A (inhibitor of mitochondrial electron-transport chain). […] Initial hits were further verified by evaluating their effects on lactate production. Since lactate is a toxic end-product of glycolysis effluxed to the intercellular space, treatment of cells with glycolytic inhibitors should lead to decreased levels of lactate in cell culture medium.
# A549 cells [2] = assay: Intracellular ATP level of A549 cells with or without antimycin A; assay type: cell-based; conditions: presence versus absence of antimycin A (10 nM)
# Description: as §2
# U-87MG glioma cells = assay: Combination of respiration suppressor and glycolysis inhibitor, cytotoxicity; assay type: cell-based; conditions: in combination with leucascandrolide A
# Description: as §1
# [3] = test system: cellular glucose consumption; assay: Cellular glucose consumption; assay type: cell-based
# caspase-3/7 = assay: Time-dependence of caspase-3/7 activation; assay type: cell-based; conditions: HL-60 cells, time after treatment
# T1 sequence (O00763 whole entry): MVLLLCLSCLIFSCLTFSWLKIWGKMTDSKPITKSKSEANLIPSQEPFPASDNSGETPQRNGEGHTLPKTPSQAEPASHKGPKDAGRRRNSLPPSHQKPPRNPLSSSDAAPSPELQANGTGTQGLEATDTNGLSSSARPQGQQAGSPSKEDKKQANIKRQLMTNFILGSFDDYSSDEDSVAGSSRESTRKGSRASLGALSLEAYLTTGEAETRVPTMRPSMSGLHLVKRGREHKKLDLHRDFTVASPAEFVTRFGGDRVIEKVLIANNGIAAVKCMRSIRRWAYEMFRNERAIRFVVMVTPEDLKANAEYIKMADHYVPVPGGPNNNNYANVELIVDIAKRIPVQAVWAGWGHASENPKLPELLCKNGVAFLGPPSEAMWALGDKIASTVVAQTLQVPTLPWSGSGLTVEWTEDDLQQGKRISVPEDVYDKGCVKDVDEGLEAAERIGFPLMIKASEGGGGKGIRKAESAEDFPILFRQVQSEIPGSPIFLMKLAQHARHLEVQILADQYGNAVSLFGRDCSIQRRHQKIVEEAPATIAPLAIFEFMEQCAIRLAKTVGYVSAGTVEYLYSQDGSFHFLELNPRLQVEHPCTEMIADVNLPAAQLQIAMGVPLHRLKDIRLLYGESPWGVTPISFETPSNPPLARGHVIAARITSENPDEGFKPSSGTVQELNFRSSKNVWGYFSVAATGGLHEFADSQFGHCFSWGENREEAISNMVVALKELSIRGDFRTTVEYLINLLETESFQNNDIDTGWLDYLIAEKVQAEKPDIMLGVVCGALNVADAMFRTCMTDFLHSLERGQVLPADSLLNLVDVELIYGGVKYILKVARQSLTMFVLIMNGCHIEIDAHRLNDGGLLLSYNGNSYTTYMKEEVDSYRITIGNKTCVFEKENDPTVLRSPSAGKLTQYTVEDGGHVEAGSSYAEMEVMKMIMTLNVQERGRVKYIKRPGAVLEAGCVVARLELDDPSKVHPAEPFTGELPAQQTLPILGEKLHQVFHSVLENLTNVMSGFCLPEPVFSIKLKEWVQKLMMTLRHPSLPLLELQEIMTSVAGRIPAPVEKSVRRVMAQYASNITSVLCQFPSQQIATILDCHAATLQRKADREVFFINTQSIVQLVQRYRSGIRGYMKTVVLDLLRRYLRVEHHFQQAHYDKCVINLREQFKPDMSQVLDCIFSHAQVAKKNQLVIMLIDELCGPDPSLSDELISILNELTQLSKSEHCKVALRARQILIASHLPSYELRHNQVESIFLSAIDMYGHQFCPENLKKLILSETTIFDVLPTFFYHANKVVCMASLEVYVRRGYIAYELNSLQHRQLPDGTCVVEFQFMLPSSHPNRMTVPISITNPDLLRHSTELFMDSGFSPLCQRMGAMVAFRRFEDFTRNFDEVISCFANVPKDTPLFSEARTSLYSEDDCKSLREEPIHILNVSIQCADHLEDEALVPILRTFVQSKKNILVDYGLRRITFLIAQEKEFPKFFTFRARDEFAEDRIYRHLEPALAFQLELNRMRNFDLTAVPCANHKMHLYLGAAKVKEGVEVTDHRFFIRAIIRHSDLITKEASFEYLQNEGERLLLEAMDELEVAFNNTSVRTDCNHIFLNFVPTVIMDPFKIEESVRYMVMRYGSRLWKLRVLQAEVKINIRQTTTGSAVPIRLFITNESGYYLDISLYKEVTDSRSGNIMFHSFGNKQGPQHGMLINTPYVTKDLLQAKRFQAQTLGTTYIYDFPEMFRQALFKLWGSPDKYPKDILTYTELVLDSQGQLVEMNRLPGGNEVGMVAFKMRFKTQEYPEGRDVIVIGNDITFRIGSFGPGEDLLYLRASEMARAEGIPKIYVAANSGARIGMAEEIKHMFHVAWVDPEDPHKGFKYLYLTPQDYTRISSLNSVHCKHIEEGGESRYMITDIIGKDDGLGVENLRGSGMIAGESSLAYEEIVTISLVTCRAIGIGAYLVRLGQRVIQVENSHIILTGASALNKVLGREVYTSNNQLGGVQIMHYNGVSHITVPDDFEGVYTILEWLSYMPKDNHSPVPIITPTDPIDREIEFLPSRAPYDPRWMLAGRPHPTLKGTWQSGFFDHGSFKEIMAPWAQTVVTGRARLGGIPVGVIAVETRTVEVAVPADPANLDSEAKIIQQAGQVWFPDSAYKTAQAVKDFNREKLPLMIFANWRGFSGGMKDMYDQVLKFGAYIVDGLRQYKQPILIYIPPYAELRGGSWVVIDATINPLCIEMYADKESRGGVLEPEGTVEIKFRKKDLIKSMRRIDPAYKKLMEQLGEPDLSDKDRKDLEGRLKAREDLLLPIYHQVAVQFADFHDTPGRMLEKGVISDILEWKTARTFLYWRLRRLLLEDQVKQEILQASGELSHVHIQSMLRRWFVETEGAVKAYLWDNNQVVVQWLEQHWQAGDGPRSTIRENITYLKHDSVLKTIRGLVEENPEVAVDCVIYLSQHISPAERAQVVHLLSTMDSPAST
Molecule,cell cycle arrest (cells),effect on cancer cell proliferation (A549 cells [1]),effect on cell proliferation (CHO-K1 cells),lactate production (glycolysis),suppression of ATP production (A549 cells [2]),also measured
rhodamine 123,,,,,,sensitisation of tumor cells to 2-deoxyglucose (tumor cells): hypersensitized tumor cells to treatment with 2-deoxyglucose
CC(C#Cc1cnc(Oc2ccc(Oc3ccccc3)cc2)s1)N(O)C(N)=O (stereo not shown) [Example A-80040],,,,,,ACC2 specificity (hACC2): certain level of ACC2 specificity
COC(=O)[C@@]12CCCCC=C1N(CCC1=CCCCC1)C(=O)[C@H]2CC(=O)NCc1ccc(OC)c(OC)c1 [Example P8A7],arrested cells in G1 phase,cytostatic effect,cytostatic effect,inhibited lactate production,suppressed ATP production more efficiently in the presence of antimycin A,cell death on combined treatment (U-87MG glioma cells): severe cell death
COC(=O)[C@@]12CCCCC/C=C\1N(Cc1cccc3ccccc13)C(=O)[C@H]2CC(=O)N1CCN(C(=O)c2ccco2)CC1 [Example P9E11],arrested cells in G1 phase,cytostatic effect,cytostatic effect,inhibited lactate production,suppressed ATP production more efficiently in the presence of antimycin A,cellular glucose consumption [3]: rapidly inhibited cellular glucose consumption; activity profile compared with cytochalasin B ([3]; cytochalasin B is an established inhibitor of glucose transport): essentially identical activity profile to cytochalasin B
CN[C@@H]1C[C@H]2O[C@@](C)([C@@H]1OC)n1c3ccccc3c3c4c(c5c6ccccc6n2c5c31)C(=O)NC4 [staurosporine],,,,,,"caspase-3/7 activation over time (caspase-3/7): increased activity between 3 and 6 hours after treatment, after which activity decreased"
